Measurements as given in patent publication US9333202B2, “Non-retinoid antagonists for treatment of age-related macular degeneration and stargardt disease” (THE TRUSTEES OF COLUMBIA UNIVERSITY IN THE CITY OF NEW YORK, priority 2012, dated 2016).

Legend:
serum RBP4 = assay: Serum RBP4 measurement (ELISA) in mice after oral dosing; type: in vivo, mouse
Procedure: The Abca4−/− mouse model manifests accelerated accumulation of lipofuscin in the RPE and is considered a pre-clinical efficacy model for a drug reducing lipofuscin accumulation.
Ten week-old Abca4 null mutant mice (129/SV×C57BL/6J) bred as previously described were used in the study. Abca4−/− (knockout) and Abca4+/+(wild-type) mice were raised under 12 h on-off cyclic lighting with an in-cage illuminance of 30-50 lux. For long-term oral dosing A1120 was formulated into Purina 5035 rodent chow at Research Diets, Inc. (New Brunswick, N.J.) to ensure consistent 30 mg/kg daily oral dosing. Animals were administered the A1120-containing chow for 6 weeks.
Blood samples were collected from a tail vein at days 0, 21 and 42 of the A1120 dosing. Whole blood was drawn into a centrifuge tube and was let clot at room temperature for 30 min followed by centrifugation at 2,000×g for 15 minutes at +4° C. to collect serum. Serum RBP4 was measured using the RBP4 (mouse/rat) dual ELISA kit (Enzo Life Sciences) following the manufacturer's instructions.
Blood samples collected from the treatment and control groups at baseline, Day 21 and Day 42 were used to measure serum RBP4 in order to correlate RBP4 levels with reduction in formation of lipofuscin bisretinoids. […] Levels of lipofuscin fluorophores (A2E, A2-DHP-PE and all-trans-retinal dimer-PE) were determined at the end of the 42-day treatment period using quantitative HPLC.

ERG b-wave = ERG b-wave after photobleaching; conditions: in vivo
[1] = test system: lipofuscin bisretinoids (A2E, A2-DHP-PE, atRAL di-PE); assay: Bisretinoid (lipofuscin fluorophore) levels in eyecups of Abca4−/− mice by HPLC; type: in vivo, mouse
Description: The Abca4−/− mouse model manifests accelerated accumulation of lipofuscin in the RPE and is considered a pre-clinical efficacy model for a drug reducing lipofuscin accumulation. […] There was approximately a 70% reduction in the serum RBP4 level in treated animals (FIG. 11). Additionally, it was discovered that that the levels of A2E/isoA2E and other bisretinoids were reduced by approximately 50% in treated mice (FIG. 12).
Abca4/Abcr null mutant mice (albino) homozygous for Rpe65-Leu450 are bred genotyped and housed. Posterior eyecups of mice and RPE/choroids harvested from human donor eyes (National Disease Research Interchange, Philadelphia Pa.) are homogenized in phosphate buffered saline (PBS) using a glass tissue grinder and extracted in chloroform/methanol (2:1). Extracts are subsequently filtered through cotton and passed through a reverse phase cartridge (C8 Sep-Pak, Millipore) with 0.1% TFA (Aldrich Chemical Company, Milwaukee, Wis.) in methanol. […] An Alliance system (Waters, Corp, Milford, Mass.) equipped with 2695 Separation Module, 2996 Photodiode Array Detector, a 2475 Multi λ Fluorescence Detector and operating with Empower® software is used for HPLC analysis. […] HPLC quantification is carried out using the Empower® software to determine peak areas. […] Molar quantity per murine eye is determined using calibration curves constructed from known concentrations of purified external standards and by normalizing to the ratio of the HPLC injection volume (10 μL) versus total extract volume. […]
Following euthanasia, posterior eye cups were pooled and homogenized in PBS using a tissue grinder. […] For quantification of bisretinoids of RPE lipofuscin, a Waters Alliance 2695 HPLC system was employed with an Atlantis dC18 column (Waters, 4.6 mm×150 mm, 3 μm) and the following gradient of acetonitrile in water (containing 0.1% trifluoroacetic acid): 90 to 100% from 0 to 10 min and 100% acetonitrile from 10 to 20 min, with a flow rate of 0.8 mL/min with monitoring at 430 nm. […] Levels of bisretinoid were determined by reference to external standards of HPLC-purified compound. […]

[2] = Abca4−/− mice, 30 mg/kg daily oral in chow
[3] = treated mice, oral 30 mg/kg (Example 3)

Compound: O=C(O)c1ccccc1NC(=O)N1CCC(c2ccccc2C(F)(F)F)CC1 [Compound 1, 2(4-(2-(trifluoromethyl)phenyl)piperidine-1-carboxamido)benzoic acid]
- Serum RBP4 reduction at Week 3 / Day 21 compared with Day 0 (serum RBP4; [2]): 64%
- Serum RBP4 reduction at Week 6 / Day 42 compared with Day 0 (serum RBP4; [2]): 75%
- Effect on serum RBP4 levels (in words) (serum RBP4; mouse, in vivo): reduce serum REBP4 levels
- Reduction in the serum RBP4 level (serum RBP4; orally dosed for 3 weeks at 30 mg/kg, treated animals (Example 3)): ~70%
- Effect on ERG b-wave after photobleaching (ERG b-wave): does not reduce ERG b-wave after photobleaching
- Effect on bisretinoid accumulation (in words) ([1]; Abca4−/− mouse model of excessive lipofuscinogenesis): inhibits bisretinoid accumulation
- Levels of A2-DHP-PE and atRAL di-PE [1, 3]: also reduced
- Reduction of levels of A2E/isoA2E and other bisretinoids [1, 3]: approximately 50%
